These results are taken from patent publication EP0436598B1, “CELL SORTING TECHNIQUE AND APPLICATIONS THEREOF” (CETUS ONCOLOGY CORPORATION, priority 1988, dated 1990).

One series concerns 520C9 cells. The experiment in a line: MTT cell growth and viability assay after fluorescent dye labeling. The class given is cell-based, murine. To be noted: labeled 20 minutes with hydroethidine 10 µg/ml at room temperature, washed, cultured three days in dye free medium; Figure 1. The source says: (§1) The effect of fluorescent dyes on cell viability can be measured using techniques well known to those skilled in the art. A most useful technique is described by Mosmann, T., J. of Immunol. Methods, 65:55 (1983) which measures cell viability as a function of cell number. Thus, the effect of fluorescent dyes on both cell viability and cell number can be measured simultaneously. The assay is based on the conversion of colorless tetrazolium salts by mitochrondrial dehydrogenase enzymes to a detectable colored product. A favored tetrazolium salt is MTT, or (3-(4,5- dimethylthylthiazol-2-yl)-2,5- diphenyl tetrazolium bromide).
(§2) Cell growth and viability was determined using the MTT assay as described by Mosmann, T., above. […] Each of the above cell lines was tested, and the results are shown in Figures 1, and 2 for 520C9 and 3G8 respectively. For both cell lines the assay was linear at least up to 10⁴ cells/well.
(§3) Next, the same cell lines were labeled in the presence or absence of either rhodamine 123 or hydroethidine, and subsequently cultured for three days during which cell number was measured. Cells were labeled in the presence of 0.5 µg/ml rhodamine 123 plus 10 µM verapamil, or 5 or 10 µg/ml hydroethidine. […]

Another series deals with 3G8 cells. The description is as above. The class given is cell-based, murine. To be noted: hydroethidine at 10 µg/ml, Figure 2.
Text: as §1, §2, §3

With `CCN1c2cc(N)ccc2-c2ccc(N)cc2C1c1ccccc1` (stereo not drawn) [hydroethidine], in the series on 520C9 cells, the “growth rate and cell numbers of 520C9 cells compared to cells grown in medium lacking the compounds” value is on record as “virtually identical”. Moreover, the “inhibition of 3G8 growth” value with 3G8 cells (labeled 20 minutes, cultured three days) is “does inhibit”. Also, the “start of inhibition of 3G8 growth” value in the series on 3G8 cells was “about 24 hours”.
